Experimental data published in ChEMBL document CHEMBL4270599, “Synthesis of a 3'-C-ethynyl-β-d-ribofuranose purine nucleoside library: Discovery of C7-deazapurine analogs as potent antiproliferative nucleosides” (Eur J Med Chem, 2018).

Experiments:
Type in all cases: functional
SK-MEL-28 [1] = test: Cytotoxicity against human SK-MEL-28 cells after 48 hrs by SRB assay; conditions: SK-MEL-28, 48 h
RXF 393 = test: Cytotoxicity against human RXF393 cells after 48 hrs by SRB assay; conditions: RXF 393, 48 h
SR = test: Growth inhibition of human SR cells assessed as cell growth at 10^-8 M incubated for 48 hrs by sulforhodamine B assay relative to control; conditions: read-out: Activity
SK-MEL-5 [2] = test: Growth inhibition of human SK-MEL-5 cells assessed as cell growth at 10^-7 M incubated for 48 hrs by sulforhodamine B assay relative to control; conditions: SK-MEL-5, 48 h, read-out: Activity
MDA-MB-231 = test: Growth inhibition of human MDA-MB-231 cells assessed as cell growth at 10^-7 M incubated for 48 hrs by sulforhodamine B assay relative to control; conditions: MDA-MB-231, 48 h, read-out: Activity
CCRF-CEM = test: Growth inhibition of human CCRF-CEM cells assessed as cell growth at 10^-6 M incubated for 48 hrs by sulforhodamine B assay relative to control; conditions: read-out: Activity
COLO 205 [3] = test: Growth inhibition of human COLO205 cells assessed as cell growth at 10^-6 M incubated for 48 hrs by sulforhodamine B assay relative to control; conditions: COLO 205, 48 h, read-out: Activity
HOP-92 [4] = test: Growth inhibition of human HOP92 cells assessed as cell growth at 10^-5 M incubated for 48 hrs by sulforhodamine B assay relative to control; conditions: HOP-92, 48 h, read-out: Activity
HT-29 [5] = test: Growth inhibition of human HT-29 cells assessed as cell growth at 10^-5 M incubated for 48 hrs by sulforhodamine B assay relative to control; conditions: HT-29, 48 h, read-out: Activity
SNB-75 [6] = test: Growth inhibition of human SNB75 cells assessed as cell growth at 10^-5 M incubated for 48 hrs by sulforhodamine B assay relative to control; conditions: SNB-75, 48 h, read-out: Activity
LOX IMVI = test: Growth inhibition of human LOXIMVI cells assessed as cell growth at 10^-5 M incubated for 48 hrs by sulforhodamine B assay relative to control; conditions: read-out: Activity
SK-MEL-5 [7] = test: Growth inhibition of human SK-MEL-5 cells assessed as cell growth at 10^-5 M incubated for 48 hrs by sulforhodamine B assay relative to control; conditions: SK-MEL-5, 48 h, read-out: Activity
IGROV-1 = test: Growth inhibition of human IGROV1 cells assessed as cell growth at 10^-5 M incubated for 48 hrs by sulforhodamine B assay relative to control; conditions: IGROV-1, 48 h, read-out: Activity
T47D [8] = test: Growth inhibition of human T47D cells assessed as cell growth at 10^-5 M incubated for 48 hrs by sulforhodamine B assay relative to control; conditions: read-out: Activity
MDA-MB-468 = test: Growth inhibition of human MDA-MB-468 cells assessed as cell growth at 10^-5 M incubated for 48 hrs by sulforhodamine B assay relative to control; conditions: MDA-MB-468, 48 h, read-out: Activity
RPMI-8226 = test: Growth inhibition of human RPMI8226 cells assessed as cell growth at 10^-4 M incubated for 48 hrs by sulforhodamine B assay relative to control; conditions: RPMI-8226, 48 h, read-out: Activity
HOP-92 [9] = test: Growth inhibition of human HOP92 cells assessed as cell growth at 10^-4 M incubated for 48 hrs by sulforhodamine B assay relative to control; conditions: HOP-92, 48 h, read-out: Activity
NCI-H23 = test: Growth inhibition of human NCI-H23 cells assessed as cell growth at 10^-4 M incubated for 48 hrs by sulforhodamine B assay relative to control; conditions: NCI-H23, 48 h, read-out: Activity
COLO 205 [10] = test: Growth inhibition of human COLO205 cells assessed as cell growth at 10^-4 M incubated for 48 hrs by sulforhodamine B assay relative to control; conditions: COLO 205, 48 h, read-out: Activity
HT-29 [11] = test: Growth inhibition of human HT-29 cells assessed as cell growth at 10^-4 M incubated for 48 hrs by sulforhodamine B assay relative to control; conditions: HT-29, 48 h, read-out: Activity
SF-295 [12] = test: Growth inhibition of human SF295 cells assessed as cell growth at 10^-4 M incubated for 48 hrs by sulforhodamine B assay relative to control; conditions: SF-295, 48 h, read-out: Activity
SF-539 = test: Growth inhibition of human SF539 cells assessed as cell growth at 10^-4 M incubated for 48 hrs by sulforhodamine B assay relative to control; conditions: SF-539, 48 h, read-out: Activity
SNB-75 [13] = test: Growth inhibition of human SNB75 cells assessed as cell growth at 10^-4 M incubated for 48 hrs by sulforhodamine B assay relative to control; conditions: SNB-75, 48 h, read-out: Activity
M14 = test: Growth inhibition of human M14 cells assessed as cell growth at 10^-4 M incubated for 48 hrs by sulforhodamine B assay relative to control; conditions: M14, 48 h, read-out: Activity
SK-MEL-28 [14] = test: Growth inhibition of human SK-MEL-28 cells assessed as cell growth at 10^-4 M incubated for 48 hrs by sulforhodamine B assay relative to control; conditions: SK-MEL-28, 48 h, read-out: Activity
SK-MEL-5 [15] = test: Growth inhibition of human SK-MEL-5 cells assessed as cell growth at 10^-4 M incubated for 48 hrs by sulforhodamine B assay relative to control; conditions: SK-MEL-5, 48 h, read-out: Activity
UACC-257 = test: Growth inhibition of human UACC257 cells assessed as cell growth at 10^-4 M incubated for 48 hrs by sulforhodamine B assay relative to control; conditions: UACC-257, 48 h, read-out: Activity
OVCAR-8 = test: Growth inhibition of human OVCAR8 cells assessed as cell growth at 10^-4 M incubated for 48 hrs by sulforhodamine B assay relative to control; conditions: OVCAR-8, 48 h, read-out: Activity
UO-31 = test: Growth inhibition of human UO31 cells assessed as cell growth at 10^-4 M incubated for 48 hrs by sulforhodamine B assay relative to control; conditions: UO-31, 48 h, read-out: Activity
BT-549 = test: Growth inhibition of human BT549 cells assessed as cell growth at 10^-4 M incubated for 48 hrs by sulforhodamine B assay relative to control; conditions: BT-549, 48 h, read-out: Activity
T47D [16] = test: Growth inhibition of human T47D cells assessed as cell growth at 10^-4 M incubated for 48 hrs by sulforhodamine B assay relative to control; conditions: read-out: Activity
SF-295 [17] = test: Growth inhibition of human SF295 cells assessed as cell growth at 10^-5 M incubated for 48 hrs by sulforhodamine B assay relative to control; conditions: SF-295, 48 h, read-out: Activity
SK-OV-3 = test: Growth inhibition of human SKOV3 cells assessed as cell growth at 10^-5 M incubated for 48 hrs by sulforhodamine B assay relative to control; conditions: SK-OV-3, 48 h, read-out: Activity
[18] = read-out: pLC50 (the source's name) (converted)
[19] = read-out: LC50 (the source's name)

Compound: C#C[C@@]1(O)[C@@H](CO)O[C@@H](n2cc(F)c3c(N)ncnc32)[C@@H]1O
- TGI (SK-MEL-28 [1]; read-out: TGI): > 100 µM
- GI50 (SK-MEL-28 [1]; read-out: pGI50 (converted)): 4.27 µM
- CC50 (SK-MEL-28 [1]; [18]): > 100 µM
- TGI (SK-MEL-28 [1]; read-out: pTGI (converted)): > 100 µM
- CC50 (RXF 393; [19]): > 100 µM
- TGI (RXF 393; read-out: TGI): 2.99 µM
- GI50 (RXF 393; read-out: pGI50 (converted)): 0.724 µM
- TGI (RXF 393; read-out: pTGI (converted)): 3.02 µM
- growth at 0.01 µM (SR): 101%
- growth at 0.1 µM (SK-MEL-5 [2]): 78%
- growth at 0.1 µM (MDA-MB-231): 88%
- growth at 1 µM (CCRF-CEM): 23%
- growth at 1 µM (COLO 205 [3]): 7%
- growth at 10 µM (HOP-92 [4]): -33%
- growth at 10 µM (HT-29 [5]): 2%
- growth at 10 µM (SNB-75 [6]): -90%
- growth at 10 µM (LOX IMVI): -78%
- growth at 10 µM (SK-MEL-5 [7]): -89%
- growth at 10 µM (IGROV-1): -33%
- growth at 10 µM (T47D [8]): -39%
- growth at 10 µM (MDA-MB-468): -57%
- growth at 100 µM (RPMI-8226): -21%
- growth at 100 µM (HOP-92 [9]): -47%
- growth at 100 µM (NCI-H23): -25%
- growth at 100 µM (COLO 205 [10]): -63%
- growth at 100 µM (HT-29 [11]): 2%
- growth at 100 µM (SF-295 [12]): -74%
- growth at 100 µM (SF-539): -39%
- growth at 100 µM (SNB-75 [13]): -86%
- growth at 100 µM (M14): -47%
- growth at 100 µM (SK-MEL-28 [14]): 19%
- growth at 100 µM (SK-MEL-5 [15]): -93%
- growth at 100 µM (UACC-257): -30%
- growth at 100 µM (OVCAR-8): -27%
- growth at 100 µM (UO-31): -30%
- growth at 100 µM (BT-549): -42%
- growth at 100 µM (T47D [16]): -77%
- growth at 10 µM (SF-295 [17]): -69%
- growth at 10 µM (SK-OV-3): -26%

Compound: C#C[C@@]1(O)[C@@H](CO)O[C@@H](n2cc(Cl)c3c(N)ncnc32)[C@@H]1O
- GI50 (SK-MEL-28 [1]; read-out: GI50): 0.469 to 0.706 µM
- TGI (SK-MEL-28 [1]; read-out: TGI): 57.1 to 89.4 µM
- CC50 (SK-MEL-28 [1]; [18]): > 100 µM
- GI50 (RXF 393; read-out: GI50): 0.299 to 0.485 µM
- TGI (RXF 393; read-out: TGI): 0.813 to 2.01 µM
- CC50 (RXF 393; [18]): > 100 µM
- growth at 0.01 µM (SR): 107 to 108%
- growth at 0.1 µM (SK-MEL-5 [2]): 55 to 69%
- growth at 0.1 µM (MDA-MB-231): 60 to 71%
- growth at 1 µM (CCRF-CEM): 7%
- growth at 100 µM (HT-29 [11]): 1%

Compound: C#C[C@@]1(O)[C@@H](CO)O[C@@H](n2cc(Br)c3c(N)ncnc32)[C@@H]1O
- GI50 (SK-MEL-28 [1]; read-out: GI50): 3.05 to 4.37 µM
- CC50 (SK-MEL-28 [1]; [19]): > 100 µM
- TGI (SK-MEL-28 [1]; read-out: TGI): 30.2 to 48.1 µM
- GI50 (RXF 393; read-out: GI50): 0.205 to 0.479 µM
- CC50 (RXF 393; [19]): > 100 µM
- TGI (RXF 393; read-out: TGI): 0.653 to 2.29 µM
- growth at 0.01 µM (SR): 101 to 104%
- growth at 0.1 µM (SK-MEL-5 [2]): 30 to 71%
- growth at 0.1 µM (MDA-MB-231): 36 to 71%
- growth at 1 µM (CCRF-CEM): 5 to 11%
- growth at 10 µM (HT-29 [5]): 1 to 3%
- growth at 100 µM (HT-29 [11]): 1 to 2%
